Patent US9650339B2, “Inhibitors of histone demethylases” (Gilead Sciences, Inc., priority 2013, dated 2017)

Key:
KDM2B (FBXL10) = molecular target: T1, KDM2B (FBXL10) (Homo sapiens, UniProt Q8NHM5); assay: Histone lysine demethylase AlphaLISA assay, KDM2B; format: biochemical; settings: read-out: KDM2B HDME Inhibition IC50
T1 sequence (Q8NHM5 1-650): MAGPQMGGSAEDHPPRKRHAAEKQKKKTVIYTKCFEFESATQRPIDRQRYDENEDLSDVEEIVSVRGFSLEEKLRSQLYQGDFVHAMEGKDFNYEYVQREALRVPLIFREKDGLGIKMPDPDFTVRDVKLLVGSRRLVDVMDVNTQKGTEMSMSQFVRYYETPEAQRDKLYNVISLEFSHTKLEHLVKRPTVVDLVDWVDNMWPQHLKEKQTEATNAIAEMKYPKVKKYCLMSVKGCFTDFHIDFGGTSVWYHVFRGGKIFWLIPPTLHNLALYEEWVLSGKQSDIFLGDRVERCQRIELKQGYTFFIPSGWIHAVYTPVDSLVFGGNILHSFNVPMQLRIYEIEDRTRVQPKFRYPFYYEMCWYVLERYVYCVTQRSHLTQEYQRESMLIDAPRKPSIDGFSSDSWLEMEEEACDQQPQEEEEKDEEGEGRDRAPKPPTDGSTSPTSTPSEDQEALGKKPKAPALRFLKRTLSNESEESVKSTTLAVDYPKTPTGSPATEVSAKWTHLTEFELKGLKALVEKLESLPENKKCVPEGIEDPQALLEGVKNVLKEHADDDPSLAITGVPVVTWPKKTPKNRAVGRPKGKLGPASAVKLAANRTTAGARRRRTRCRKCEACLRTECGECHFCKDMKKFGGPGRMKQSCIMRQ
Summary of the method: (§1)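 Enzyme 10 min pre-incubation; + compound (3% DMSO soln) 10 min; + biotin-H3 methyl-Lys peptide, 25 μM L-Asc, 10 μM α-KG, RT. Read: AlphaLISA acceptor beads, then streptavidin donor beads, RT, dark.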

KDM4C (JMJD2C) = molecular target: T2, KDM4C (JMJD2C) (Homo sapiens, UniProt Q9H3R0); assay: Histone lysine demethylase AlphaLISA assay, KDM4C; format: biochemical; settings: read-out: KDM4C HDME Inhibition IC50
T2 sequence (Q9H3R0 1-349): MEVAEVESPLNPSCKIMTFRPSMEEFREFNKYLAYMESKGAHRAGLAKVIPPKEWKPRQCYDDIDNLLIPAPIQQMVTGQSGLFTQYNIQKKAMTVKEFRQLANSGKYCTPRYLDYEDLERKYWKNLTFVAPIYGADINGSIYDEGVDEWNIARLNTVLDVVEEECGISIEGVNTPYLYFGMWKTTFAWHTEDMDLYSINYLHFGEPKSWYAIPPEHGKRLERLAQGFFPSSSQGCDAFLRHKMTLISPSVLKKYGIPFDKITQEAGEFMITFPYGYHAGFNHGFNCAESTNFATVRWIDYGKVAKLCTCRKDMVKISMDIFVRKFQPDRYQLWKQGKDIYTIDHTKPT
Summary of the method: as §1

KDM5B (PLU-1) = molecular target: T3, KDM5B (PLU-1) (Homo sapiens, UniProt Q9UGL1); assay: Histone lysine demethylase AlphaLISA assay, KDM5B; format: biochemical; settings: read-out: KDM5B HDME Inhibition IC50
T3 sequence (Q9UGL1 1-809): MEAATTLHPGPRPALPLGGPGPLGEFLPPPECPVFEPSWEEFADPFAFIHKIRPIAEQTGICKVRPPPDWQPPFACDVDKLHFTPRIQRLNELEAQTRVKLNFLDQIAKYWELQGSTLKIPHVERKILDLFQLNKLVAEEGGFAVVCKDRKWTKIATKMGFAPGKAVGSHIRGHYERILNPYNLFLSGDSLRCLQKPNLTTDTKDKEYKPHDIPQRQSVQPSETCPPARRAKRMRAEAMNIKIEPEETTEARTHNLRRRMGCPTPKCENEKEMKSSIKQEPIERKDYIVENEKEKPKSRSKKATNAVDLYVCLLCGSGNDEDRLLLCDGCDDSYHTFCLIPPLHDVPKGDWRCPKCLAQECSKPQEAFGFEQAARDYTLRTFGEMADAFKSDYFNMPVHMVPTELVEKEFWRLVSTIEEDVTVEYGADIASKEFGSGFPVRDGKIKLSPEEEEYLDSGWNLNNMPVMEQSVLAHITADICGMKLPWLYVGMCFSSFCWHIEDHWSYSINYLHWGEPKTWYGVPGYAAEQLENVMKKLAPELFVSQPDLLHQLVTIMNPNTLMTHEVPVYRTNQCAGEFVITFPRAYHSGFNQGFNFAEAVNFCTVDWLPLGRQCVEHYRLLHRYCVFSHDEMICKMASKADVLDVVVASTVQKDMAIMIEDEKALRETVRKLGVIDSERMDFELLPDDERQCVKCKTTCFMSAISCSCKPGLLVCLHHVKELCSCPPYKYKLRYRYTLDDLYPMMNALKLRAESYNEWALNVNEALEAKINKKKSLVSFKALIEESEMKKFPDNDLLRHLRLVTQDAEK
Summary of the method: as §1

KDM6A (UTX) = KDM6A (UTX) (Homo sapiens, UniProt O15550); assay: Histone lysine demethylase AlphaLISA assay, KDM6A; format: biochemical; settings: read-out: KDM6A HDME Inhibition IC50
Summary of the method: as §1

MCF7 cells = assay: Cell proliferation assay MCF7; format: cell-based; settings: MCF7 human breast cancer cells; 120 hours; ATPlite 1 Step
Summary of the method: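 Cells grown 24 h in DMEM GlutaMAX/10% FBS, then exposed to compounds in duplicate (≤0.5% DMSO) for 120 h. Viability read as ATP luminescence (ATPlite 1 Step). Seeding set to reach ~90% confluence at harvest.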

KARPAS620 = assay: Cell proliferation assay KARPAS620; format: cell-based; settings: Homo sapiens, Karpas-620; KARPAS620, Plasma cell leukemia; method of Example 5
Method: (§2) MCF7 cells were seeded in multi well plates at a density optimized to give approximately 90% confluent cells at the time of harvest. Cells were incubated for 24 hours before addition of compound. Compounds were diluted in complete medium and added to the plates in duplicates. The final concentration of DMSO was maximum 0.5%. Complete medium used was DMEM with GlutaMAX containing 10% FBS and pen/strep.
(§3) 120 hours after addition of compounds, the plates were harvested and analyzed by ATPlite 1 Step (Perkin Elmer, cat no 6016739) according to the manufactures recommendation.
(§4) The assays were performed by the method of Example 5 by seeding the relevant cell line at a density optimized to give approximately 90% confluent cells at the time of harvest.

MOLP8 = assay: Cell proliferation assay MOLP8; format: cell-based; settings: Homo sapiens, MOLP-8; MOLP8, Myeloma; method of Example 5
Method: as §2, §3, §4

Chain of KDM6A (UTX) (O15550 919-1401): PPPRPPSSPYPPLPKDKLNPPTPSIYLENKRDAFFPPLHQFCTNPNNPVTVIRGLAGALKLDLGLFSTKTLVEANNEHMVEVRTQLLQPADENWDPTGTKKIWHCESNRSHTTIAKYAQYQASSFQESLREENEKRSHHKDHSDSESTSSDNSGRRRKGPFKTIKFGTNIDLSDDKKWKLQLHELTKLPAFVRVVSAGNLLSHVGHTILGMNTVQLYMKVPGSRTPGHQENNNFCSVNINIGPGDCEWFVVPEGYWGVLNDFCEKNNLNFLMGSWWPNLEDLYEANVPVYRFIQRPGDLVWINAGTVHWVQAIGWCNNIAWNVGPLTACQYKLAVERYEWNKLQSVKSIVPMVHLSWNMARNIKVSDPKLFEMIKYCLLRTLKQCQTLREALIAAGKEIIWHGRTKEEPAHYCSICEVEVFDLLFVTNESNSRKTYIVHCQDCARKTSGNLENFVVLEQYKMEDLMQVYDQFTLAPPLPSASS

- IC50 (KDM2B (FBXL10)): > 2.5 µM
- IC50 (KDM4C (JMJD2C)): 0.25 to 2.5 µM
- IC50 (KDM5B (PLU-1)): < 0.25 µM
- IC50 (KDM6A (UTX)): > 2.5 µM
- EC50 (MCF7 cells): < 0.25 µM
- EC50 (KARPAS620): < 0.25 µM
Structure (SMILES): CCN(CCN(C)C)C(=O)CNCc1cc(/C=N/CC(CO)C2CCCCC2)ccn1 (stereo not shown) [Compound 81, 2-[({4-[[(2-cyclohexyl-3-hydroxypropyl)-imino]methyl]pyridin-2-yl}methyl)-amino]-N-[2-(dimethylamino)-ethyl]-N-ethylacetamide]
- EC50 (MOLP8): < 0.25 µM
